Read-outs that look alike come from different tables or passages of the source.
Tests used:
alfalfa seeds = assay: Pre-sowing seed treatment, sowing qualities of alfalfa seeds; assay type: in vivo; settings: for germination energy / laboratory germination: control 76
Description: (§1) When evaluating the effectiveness of treatment of wheat, alfalfa, barley, rice, and sorghum seeds as fungicidal and bactericidal agents with preparation compounds at concentrations of 10, 20, and 40 mmol, their effect on the suppression of seed infection was evaluated.
(§2) […] The sowing qualities were evaluated (germination energy for 3–4 days, laboratory germination for 7–8 days) according to GOST 12038-84 [60]. Sowing qualities of seeds were determined in wet chambers. According to the sample, 50 seeds were taken in 4-fold repetition.

barley seeds = assay: Pre-sowing seed treatment, sowing qualities of barley seeds; assay type: in vivo; settings: for germination energy / laboratory germination: control 95.2
Description: as §1, §2

[1] = system: bacterial microflora on barley seeds; assay: Growth of bacterial microflora on treated barley seeds; assay type: cell-based; settings: all studied doses
Description: (§3) During phytopathological analyses of agricultural crops, the species composition of fungal and bacterial microflora was established. Laboratory studies were carried out on two nutrient media potato-agar (ingredients: potatoes—200 g; agar-agar—20 g; distilled water—1000 mL.) and potato-dextrose agar (ingredients: potatoes—200 g;dextrose—20 g; agar-agar—20 g; distilled water—1000 mL), according to the guidelines.
as §1

rice seeds = assay: Pre-sowing seed treatment, sowing qualities of rice seeds; assay type: in vivo; settings: for germination energy: control 71.4; for laboratory germination: control 95.2
Description: as §1, §2

[2] = system: bacterial microflora on rice seeds; assay: Growth of bacterial microflora on treated rice seeds; assay type: cell-based
Description: as §3, §1

SH-SY5Y (neuroblastoma) = assay: Cell viability, MTT test; assay type: cell-based, Human; settings: for IC50: Homo sapiens, SH-SY5Y, read-out: IC50 (concentration causing 50% inhibition of cell population growth)
Description: (§4) In this work, the cytotoxic potential of the water-soluble salts based on benzofuroxan was determined by the effect of compounds on the survival of the cell tumor origin cultures (SH-SY5Y, Hep2, A549, HeLa) using the MTT test. To understand how the synthesized compounds can influence the healthy microenvironment in the body, the effect of substances on the viability of a normal Hek 293 cell culture was additionally evaluated.
(§5) Human cell cultures of tumor origin—SH-SY5Y (neuroblastoma), HeLa (cervical tumor), Hep-2 (larynx carcinoma), A549 (adenocarcinomic human alveolar basal epithelial cells)—and normal cell line Hek 293 (human embryonic kidneys), provided by the Laboratory of Tumor Cell Genetics of the Scientific Research Institute of Carcinogenesis, N.N. Blokhin National Medical Research Center of Oncology, as well as the Institute of Cytology of the Russian Academy of Sciences, were grown in a nutrient medium DMEM (PanEco, Moscow, Russia) and MEM (PanEco, Moscow, Russia), containing fetal bovine serum (10% by volume) (ThermoFisher Scientific, Paisley, UK), Glutamax (2 mM) (Gibco, Scotland, UK), and penicillin-streptomycin (1% by volume) (PanEco, Moscow, Russia). The cultivation was carried out at 37 °C in a humidified CO2 atmosphere (5%).
(§6) Cell viability was determined by MTT test. Cells were seeded in a 96-well plate in the amount of 1 × 10^4 cells/200µLof complete nutrient medium and cultured at 37 °C in CO2 (5%). After 24 h of incubation, various concentrations of test compounds in the range from 0.1 to 100 μM, were added to the cell cultures, and then the cells were cultured under the same conditions for 24 and 72 h. For each concentration, the experiment was carried out in triplicate.
(§7) All compounds were dissolved in DMSO, then diluted with the medium to the required concentration. […] The DMSO was also added to the control wells in a volume of 1%. After the incubation time, MTT (3-(4,5-dimethylthiazol-2-yl)-2,5-diphenyltetrazolium bromide, 5 mg/mL) was added to each well and plates were additionally incubated for 2 h (until the characteristic color appeared).
(§8) Using a plate analyzer (Cytation3, BioTech Instruments Inc., Winooski, VT, USA), the optical density was determined at 530 nm. The concentration value causing 50% inhibition of cell population growth (IC50) was determined from dose-dependent curves.

[3] = system: A549 (adenocarcinomic human alveolar basal epithelial cells); assay: Cell viability, MTT test; assay type: cell-based; settings: read-out: IC50 (concentration causing 50% inhibition of cell population growth)
Description: as §4, §5, §6, §7, §8

HeLa (cervical tumor) = assay: Cell viability, MTT test; assay type: cell-based; settings: Homo sapiens, read-out: IC50 (concentration causing 50% inhibition of cell population growth)
Description: as §4, §5, §6, §7, §8

Hep-2 (larynx carcinoma) = assay: Cell viability, MTT test; assay type: cell-based; settings: Homo sapiens, read-out: IC50 (concentration causing 50% inhibition of cell population growth)
Description: as §4, §5, §6, §7, §8

[4] = system: fungal microflora (mushrooms) on alfalfa seeds; assay: Growth of fungal microflora on treated alfalfa seeds; assay type: cell-based; settings: 10 mmol
Description: as §3
When evaluating the effectiveness of treatment of wheat, alfalfa, barley, rice, and sorghum seeds as […], their effect on the suppression of seed infection was evaluated.

Row | SMILES | germination energy (alfalfa seeds; 10 mmol) [%] | laboratory germination (alfalfa seeds; 10 mmol) [%] | germination energy (alfalfa seeds; 20 mmol) [%] | laboratory germination (alfalfa seeds; 20 mmol) [%] | germination energy (alfalfa seeds; 40 mmol) [%] | laboratory germination (alfalfa seeds; 40 mmol) [%] | germination energy (barley seeds; 10 mmol) [%] | laboratory germination (barley seeds; 10 mmol) [%] | sowing qualities of seeds compared with control (barley seeds; 20 mmol) | germination energy (barley seeds; 20 mmol) [%] | laboratory germination (barley seeds; 20 mmol) [%] | germination energy (barley seeds; 40 mmol) [%] | laboratory germination (barley seeds; 40 mmol) [%] | germination energy (rice seeds; 10 mmol) [%] | laboratory germination (rice seeds; 10 mmol) [%] | germination energy (rice seeds; 20 mmol) [%] | laboratory germination (rice seeds; 20 mmol) [%] | sowing qualities of seeds compared with control (rice seeds; 40 mmol) | germination energy (rice seeds; 40 mmol) [%] | laboratory germination (rice seeds; 40 mmol) [%] | other results
1 | O=[N+]([O-])c1c(Cl)cc2c(no[n+]2[O-])c1NCCCN1CCOCC1 [4e, 6-chloro-4-(3-(morpholino-4-ium)propylamino)-5-nitrobenzo[c][1,2,5]oxadiazole 1-oxide chloride] | 46.6 | 46.6 | 78.5 | 79.5 | 73 | 74 | 85.7 | 85.7 | higher than control | 96 | 98 | 94 | 99 | 38 | 38 | 98.5 | 99 | better results than the control | 99 | 99 | effect on bacterial microflora [1]: slight suppression of the bacterial microflora; sowing qualities of seeds compared with control (rice seeds; 20 mmol): better results than the control; effect on bacterial microflora ([2]; 10 mmol): positive effect on the suppression of bacterial microflora; effect on bacterial microflora ([2]; 20 mmol): positive effect on the suppression of bacterial microflora; IC50 (SH-SY5Y (neuroblastoma); 24 h): 24.1 ± 1.22 µM; IC50 (SH-SY5Y (neuroblastoma); 72 h): 20.2 ± 0.72 µM; selectivity index (SH-SY5Y (neuroblastoma); IC50 on neuroblastoma SH-SY5Y with respect to Hek 293, 24 h): more than 4; IC50 ([3]; A549, 24 h): 90.2 ± 3.43 µM; IC50 ([3]; A549, 72 h): 77.1 ± 1.36 µM; IC50 (HeLa (cervical tumor); 24 h): > 100 µM; IC50 (HeLa (cervical tumor); 72 h): 93.8 ± 2.53 µM; IC50 (Hep-2 (larynx carcinoma); HEp-2, 24 h): 83 ± 1.37 µM; IC50 (Hep-2 (larynx carcinoma); HEp-2, 72 h): 70.21 ± 0.54 µM
2 | CN(C)CCCNc1c([N+](=O)[O-])c(Cl)cc2c1no[n+]2[O-].Cl [4g, 6-chloro-4-(3-(dimethylammonio)propylamino)-5-nitrobenzo[c][1,2,5]oxadiazole 1-oxide chloride] | 56.6 | 60 | 43.3 | 63.3 | 80 | 80 | 52.3 | 52.3 | higher than control | 100 | 100 | 100 | 100 | 38 | 47.6 | 71.4 | 100 | at the control level | 76.1 | 95.2 | sowing qualities of seeds compared with control (alfalfa seeds; 40 mmol): higher than controls; effect on fungal microflora [4]: positive effect on the suppression of fungal microflora; sowing qualities of seeds compared with control (barley seeds; 40 mmol): higher than control; IC50 (SH-SY5Y (neuroblastoma); 24 h): 20.9 ± 0.82 µM; IC50 (SH-SY5Y (neuroblastoma); 72 h): 17.07 ± 0.03 µM; IC50 ([3]; A549, 24 h): 82 ± 1.54 µM; IC50 ([3]; A549, 72 h): 64.2 ± 2.12 µM; IC50 (HeLa (cervical tumor); 24 h): 97.8 ± 3.31 µM; IC50 (HeLa (cervical tumor); 72 h): 83.1 ± 4.29 µM; IC50 (Hep-2 (larynx carcinoma); HEp-2, 24 h): 70.3 ± 1.28 µM; IC50 (Hep-2 (larynx carcinoma); HEp-2, 72 h): 58 ± 2.9 µM
